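Test compounds were applied to cells in 96-well plates for 48 hours at 5 doses. The concentration for 50% growth inhibition is given as GI50. TGI denotes the concentration required for complete inhibition of growth.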
Experiments:
Test in all cases: growth of human tumour cells (NCI), 48 h
[1] = test system: SK-OV-3 ovarian
[2] = test system: DU-145 prostate
[3] = test system: ACHN renal
[4] = test system: A498 renal
[5] = test system: HT29 colon
[6] = test system: CAKI-1 renal
[7] = test system: UO-31 renal
[8] = test system: SW-620 colon
[9] = test system: NCI-H226 lung
[10] = test system: SK-MEL-5 melanoma
[11] = test system: RXF 393 renal
[12] = test system: MCF7 breast
[13] = test system: SK-MEL-2 melanoma
[14] = test system: CCRF-CEM leukemia
[15] = test system: OVCAR-3 ovarian
[16] = test system: HCT-15 colon
[17] = test system: HOP-92 NSCLC
[18] = test system: HCC-2998 colon
[19] = test system: TK-10 renal
[20] = test system: HOP-62 NSCLC
[21] = test system: NCI-H460 lung
[22] = test system: SF-295 CNS
[23] = test system: MDA-MB-231 breast
[24] = test system: SF-539 CNS
[25] = test system: SK-MEL-28 melanoma
[26] = test system: OVCAR-5 ovarian
[27] = test system: UACC-62 melanoma
[28] = test system: T-47D breast
[29] = test system: M14 melanoma
[30] = test system: RPMI-8226 leukemia
[31] = test system: NCI-H522 lung
[32] = test system: MOLT-4 leukemia
[33] = test system: SNB-19 CNS
[34] = test system: K-562 leukemia
[35] = test system: HL-60(TB) leukemia
[36] = test system: SN12C renal
[37] = test system: KM12 colon
[38] = test system: COLO 205 colon
[39] = test system: A549 NSCLC
[40] = test system: EKVX NSCLC
[41] = test system: MALME-3M melanoma
[42] = test system: SNB-75 CNS
[43] = test system: BT-549 breast
[44] = test system: NCI-H23 lung
[45] = test system: IGROV1 ovarian
[46] = test system: LOX IMVI melanoma
[47] = test system: UACC-257 melanoma
[48] = test system: SR leukemia
[49] = test system: HCT-116 colon
[50] = test system: MDA-MB-435
[51] = test system: 786-0 renal
[52] = test system: PC-3 prostate

Structure (SMILES): CN1CCN(Cc2ccc(NC(=O)c3cncc(C#Cc4cnc5ccc(N6CCSCC6)nn45)c3)cc2C(F)(F)F)CC1
- GI50 [1]: 0.656 µM
- TGI [1]: 2.06 µM
- GI50 [2]: 0.202 µM
- TGI [2]: 0.6 µM
- GI50 [3]: 0.224 µM
- TGI [3]: 1.2 µM
- GI50 [4]: 0.307 µM
- TGI [4]: 0.537 µM
- GI50 [5]: 0.0744 µM
- TGI [5]: 0.554 µM
- GI50 [6]: 0.221 µM
- TGI [6]: 0.787 µM
- GI50 [7]: 0.28 µM
- TGI [7]: 0.855 µM
- GI50 [8]: 0.153 µM
- TGI [8]: 1.09 µM
- GI50 [9]: 0.0518 µM
- TGI [9]: 0.78 µM
- GI50 [10]: 0.786 µM
- TGI [10]: 2.08 µM
- GI50 [11]: 0.141 µM
- TGI [11]: 0.295 µM
- GI50 [12]: 0.0459 µM
- TGI [12]: 0.598 µM
- GI50 [13]: 0.26 µM
- TGI [13]: 0.745 µM
- GI50 [14]: 0.303 µM
- GI50 [15]: 0.322 µM
- TGI [15]: 1.29 µM
- GI50 [16]: 0.172 µM
- TGI [16]: 0.564 µM
- GI50 [17]: 0.0418 µM
- TGI [17]: 0.24 µM
- GI50 [18]: 0.245 µM
- TGI [18]: 0.878 µM
- GI50 [19]: 0.319 µM
- TGI [19]: 1.08 µM
- GI50 [20]: 0.338 µM
- TGI [20]: 1.45 µM
- GI50 [21]: 0.208 µM
- TGI [21]: 0.532 µM
- GI50 [22]: 0.31 µM
- TGI [22]: 1.6 µM
- GI50 [23]: 0.0742 µM
- TGI [23]: 0.572 µM
- GI50 [24]: 0.0936 µM
- TGI [24]: 0.275 µM
- GI50 [25]: 0.498 µM
- TGI [25]: 1.85 µM
- GI50 [26]: 0.282 µM
- TGI [26]: 1.32 µM
- GI50 [27]: 0.468 µM
- TGI [27]: 1.93 µM
- GI50 [28]: 1.4 µM
- TGI [28]: 3.89 µM
- GI50 [29]: 0.156 µM
- TGI [29]: 0.76 µM
- GI50 [30]: 0.333 µM
- TGI [30]: 2.07 µM
- GI50 [31]: 0.132 µM
- TGI [31]: 0.34 µM
- GI50 [32]: 0.198 µM
- TGI [32]: 0.666 µM
- GI50 [33]: 0.446 µM
- TGI [33]: 1.35 µM
- TGI [34]: 0.753 µM
- GI50 [35]: 0.0782 µM
- TGI [35]: 0.52 µM
- GI50 [36]: 0.112 µM
- TGI [36]: 0.702 µM
- TGI [37]: 0.34 µM
- GI50 [38]: 0.153 µM
- TGI [38]: 0.429 µM
- GI50 [39]: 0.272 µM
- TGI [39]: 1.58 µM
- GI50 [40]: 0.1 µM
- TGI [40]: 0.877 µM
- GI50 [41]: 0.202 µM
- TGI [41]: 1.07 µM
- GI50 [42]: 0.256 µM
- TGI [42]: 0.832 µM
- GI50 [43]: 0.354 µM
- TGI [43]: 1.24 µM
- GI50 [44]: 0.156 µM
- TGI [44]: 0.595 µM
- GI50 [45]: 0.168 µM
- TGI [45]: 0.806 µM
- GI50 [46]: 0.152 µM
- TGI [46]: 0.535 µM
- GI50 [47]: 0.599 µM
- TGI [47]: 2.34 µM
- GI50 [48]: 0.208 µM
- TGI [48]: 0.712 µM
- GI50 [49]: 0.112 µM
- TGI [49]: 1.16 µM
- GI50 [50]: 0.197 µM
- TGI [50]: 1.48 µM
- GI50 [51]: 0.189 µM
- TGI [51]: 0.762 µM
- GI50 [52]: 0.327 µM
- TGI [52]: 1.99 µM
